Data taken from patent publication US7553861B2, “Dipeptidyl peptidase-IV inhibitors” (Alantos Pharmaceuticals Holding, Inc., priority 2005, dated 2009).

Molecular target: T1, DPP-IV (Homo sapiens, UniProt P27487)
T1 construct: purchased R&D Systems GmbH, Germany
Experiment: Assay for determining DP-IV inhibition (fluorometric, Gly-Pro-AMC substrate)
Assay type: biochemical
Conditions: Inhibition of DPP-IV, K(i) calculated from IC(50) with IC(50)=K(i)(1+[S]/Km), pH 8.0
Description: The inhibitory activity of compounds against DPP-IV can be determined by in vitro assay systems, which are themselves well established in the art. The assay results given in Table 5 were obtained according to the following method, employing a modified version of the assay described by Leiting et al., in an article entitled “Catalytic properties and inhibition of proline-specific dipeptidyl peptidases II, IV and VII” in Biochem. J. Vol. 371, pages 525-532 (2003):
DPP-IV activity was determined fluorometrically with Gly-Pro-AMC (where AMC stands for 7-amido-4-methylcoumarin, Bachem AG, Switzerland) as substrate. The reaction mixture contained 10 μl of 1 ng/μl DPP-IV (R&D Systems GmbH, Germany) and 80 μl of 25 mM Tris/HCl buffer, pH 8.0. Compounds were supplied as DMSO stock solutions and diluted in assay buffer to a maximal DMSO concentration of 1% in the assay. Prior to start of the reaction, the mixture was incubated for 30 min at room temperature. The reaction was started by addition of 10 μl of 100 μM substrate solution.
The fluorescence intensity was measured at excitation and emission wavelengths of 355 and 460 nm, respectively, in a FluoStar Galaxy Multiwell Plate (BMG Labtech, Germany). Fluorescence was determined 3 and 4 minutes after start of reaction and increase in fluorescence was used for determination of enzymatic activity. IC(50) values of tested compounds were determined via plotting enzymatic activity versus concentration of test compound and determining the concentration of test compound which yields a 50% inhibition of enzymatic activity.
K(i) values were calculated using the Michaelis-Menten equation for competitive inhibition: IC(50)=K(i)(1+[S]/Km)

T1 sequence (P27487 whole entry): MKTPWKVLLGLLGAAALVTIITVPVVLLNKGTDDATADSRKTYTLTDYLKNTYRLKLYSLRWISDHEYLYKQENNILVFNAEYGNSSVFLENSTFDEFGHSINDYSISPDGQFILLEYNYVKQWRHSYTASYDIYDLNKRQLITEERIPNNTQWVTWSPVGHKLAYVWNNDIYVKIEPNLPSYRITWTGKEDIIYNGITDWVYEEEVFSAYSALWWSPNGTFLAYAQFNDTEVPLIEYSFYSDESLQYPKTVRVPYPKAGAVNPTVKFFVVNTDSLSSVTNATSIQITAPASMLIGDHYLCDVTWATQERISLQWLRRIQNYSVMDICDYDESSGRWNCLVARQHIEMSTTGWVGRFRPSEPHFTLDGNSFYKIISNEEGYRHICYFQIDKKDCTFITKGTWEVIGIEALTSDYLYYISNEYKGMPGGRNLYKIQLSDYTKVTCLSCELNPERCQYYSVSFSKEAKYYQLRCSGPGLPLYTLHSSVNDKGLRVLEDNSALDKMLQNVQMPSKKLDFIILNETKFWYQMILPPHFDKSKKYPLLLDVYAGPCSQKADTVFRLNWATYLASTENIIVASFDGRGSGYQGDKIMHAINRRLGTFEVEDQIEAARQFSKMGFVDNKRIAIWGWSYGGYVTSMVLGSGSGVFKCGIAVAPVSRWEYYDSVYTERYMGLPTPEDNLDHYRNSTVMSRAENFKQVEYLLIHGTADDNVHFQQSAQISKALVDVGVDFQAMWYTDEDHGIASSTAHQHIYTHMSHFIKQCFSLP

Structure (SMILES)	Ki
N#C[C@@H]1CCCN1C(=O)CNCCNC1c2ccccc2CCc2ccccc21 [Example 1]	0.051 to 0.5 µM
N#C[C@@H]1CCCN1C(=O)CNC1c2ccccc2CCc2ccccc21 [Example 2]	0.5 to 30 µM
CC(C)(CNC1c2ccccc2CCc2ccccc21)NCC(=O)N1CCC[C@H]1C#N [Example 3]	0.5 to 30 µM
N#C[C@@H]1CCCN1C(=O)CNCC1c2ccccc2CCc2ccccc21 [Example 4]	0.5 to 30 µM
N#C[C@@H]1CCCN1C(=O)CNCC(=O)N1c2ccccc2CCc2ccccc21 [Example 5]	0.5 to 30 µM
N#C[C@@H]1CCCN1C(=O)CNCCN1c2ccccc2C=Cc2ccccc21 [Example 7]	0.051 to 0.5 µM
N#C[C@@H]1CCCN1C(=O)CNCCCN1c2ccccc2CCc2ccccc21 [Example 9]	0.051 to 0.5 µM
N#C[C@@H]1CCCN1C(=O)CNCCC1(O)c2ccccc2CCc2ccccc21 [Example 10]	0.051 to 0.5 µM
N#C[C@@H]1CCCN1C(=O)CNCC=C1c2ccccc2CCc2ccccc21 [Example 11]	0.051 to 0.5 µM
N#C[C@@H]1CCCN1C(=O)CNC1CCN(C2c3ccccc3CCc3ccccc32)CC1 [Example 12]	0.051 to 0.5 µM
N#C[C@@H]1CCCN1C(=O)CNC1CCN(C2c3ccccc3CCc3ccccc32)C1 (stereo partly drawn) [Example 13]	0.051 to 0.5 µM
N#C[C@@H]1CCCN1C(=O)CNC1CN(C2c3ccccc3CCc3ccccc32)C1 [Example 14]	0.5 to 30 µM
N#C[C@@H]1CCCN1C(=O)CNC1c2ccc(Cl)cc2CCc2cccnc21 (stereo partly drawn) [Example 15]	0.5 to 30 µM
N#C[C@@H]1CCCN1C(=O)CNCCC1(C#N)c2ccccc2CCc2ccccc21 [Example 16]	0.051 to 0.5 µM
N#C[C@@H]1CCCN1C(=O)CNCCC1(C(N)=O)c2ccccc2CCc2ccccc21 [Example 17]	0.006 to 0.05 µM
C[C@@H](CC1(C(N)=O)c2ccccc2CCc2ccccc21)NCC(=O)N1CCC[C@H]1C#N [Example 18]	< 0.006 µM
C[C@H](CC1(C(N)=O)c2ccccc2CCc2ccccc21)NCC(=O)N1CCC[C@H]1C#N [Example 19]	0.006 to 0.05 µM
N#C[C@@H]1CCCN1C(=O)CNCCNC1c2ccc(Cl)cc2CCc2cccnc21 (stereo partly drawn) [Example 20]	0.051 to 0.5 µM
N#C[C@@H]1CCCN1C(=O)CNCCNC1c2ccccc2CCc2cccnc21 (stereo partly drawn) [Example 21]	0.051 to 0.5 µM
N#C[C@@H]1CCCN1C(=O)CNCCC1(C(N)=O)c2ccc(C(N)=O)cc2CCc2ccc(F)cc21 (stereo partly drawn) [Example 22]	< 0.006 µM
N#C[C@@H]1CCCN1C(=O)CNCCC1(c2nn[nH]n2)c2ccccc2CCc2ccccc21 [Example 23]	0.006 to 0.05 µM

Structure (SMILES)	Ki
N#C[C@@H]1CCCN1C(=O)CNCCC1(c2nn[nH]n2)c2ccc(F)cc2CCc2ccc(F)cc21 (stereo partly drawn) [Example 24]	< 0.006 µM
N#C[C@@H]1CCCN1C(=O)CNCCC1(c2nn[nH]n2)c2ccc(Cl)cc2CCc2cc(Cl)ccc21 [Example 25]	0.006 to 0.05 µM
C[C@@H](CN1C[C@@H]2C[C@H]1C(=O)N2Cc1cccc(F)c1)NCC(=O)N1CCC[C@H]1C#N [Example 26]	0.051 to 0.5 µM
C[C@@H](CC1(c2nn[nH]n2)c2ccc(C(N)=O)cc2CCc2cc(C(N)=O)ccc21)NCC(=O)N1CCC[C@H]1C#N [Example 27]	< 0.006 µM
CNC(=O)c1ccc2c(c1)CCc1cc(C(=O)NC)ccc1C2(C[C@H](C)NCC(=O)N1CCC[C@H]1C#N)c1nn[nH]n1 [Example 28]	< 0.006 µM
C[C@@H](CC1(c2nn[nH]n2)c2ccc(C(=O)N(C)C)cc2CCc2cc(C(=O)N(C)C)ccc21)NCC(=O)N1CCC[C@H]1C#N [Example 29]	< 0.006 µM
CCNC(=O)c1ccc2c(c1)CCc1cc(C(=O)NCC)ccc1C2(C[C@H](C)NCC(=O)N1CCC[C@H]1C#N)c1nn[nH]n1 [Example 30]	< 0.006 µM
CC(C)NC(=O)c1ccc2c(c1)CCc1cc(C(=O)NC(C)C)ccc1C2(C[C@H](C)NCC(=O)N1CCC[C@H]1C#N)c1nn[nH]n1 [Example 31]	0.006 to 0.05 µM
C[C@@H](CC1(c2nn[nH]n2)c2ccc(C(=O)N3CCC3)cc2CCc2cc(C(=O)N3CCC3)ccc21)NCC(=O)N1CCC[C@H]1C#N [Example 32]	< 0.006 µM
C[C@@H](CC1(c2nn[nH]n2)c2ccc(C(=O)N3CCOCC3)cc2CCc2cc(C(=O)N3CCOCC3)ccc21)NCC(=O)N1CCC[C@H]1C#N [Example 33]	< 0.006 µM
N#C[C@@H]1CCCN1C(=O)CNCCC1(c2nn[nH]n2)c2ccc(C(N)=O)cc2CCc2cc(C(N)=O)ccc21 [Example 34]	< 0.006 µM
CNC(=O)c1ccc2c(c1)CCc1cc(C(=O)NC)ccc1C2(CCNCC(=O)N1CCC[C@H]1C#N)c1nn[nH]n1 [Example 35]	< 0.006 µM
CN(C)C(=O)c1ccc2c(c1)CCc1cc(C(=O)N(C)C)ccc1C2(CCNCC(=O)N1CCC[C@H]1C#N)c1nn[nH]n1 [Example 36]	0.006 to 0.05 µM
C[C@@H](CC1(C(N)=O)c2ccc(C(=O)N(C)C)cc2CCc2cc(C(=O)N(C)C)ccc21)NCC(=O)N1CCC[C@H]1C#N [Example 39]	0.006 to 0.05 µM
C[C@@H](CC1(c2noc(C(F)(F)F)n2)c2ccc(C(=O)N(C)C)cc2CCc2cc(C(=O)N(C)C)ccc21)NCC(=O)N1CCC[C@H]1C#N [Example 40]	0.5 to 30 µM
COC(=O)c1ccc2c(c1)CCc1cc(C(=O)OC)ccc1C2(C[C@H](C)NCC(=O)N1CCC[C@H]1C#N)c1nn[nH]n1 [Example 43]	< 0.006 µM
C[C@@H](CC1(c2nn[nH]n2)c2ccc(C(=O)O)cc2CCc2cc(C(=O)O)ccc21)NCC(=O)N1CCC[C@H]1C#N [Example 44]	< 0.006 µM
N#C[C@@H]1CCCN1C(=O)CNCCC1(c2nn[nH]n2)c2cc(F)ccc2CCc2ccc(C(N)=O)cc21 (stereo partly drawn) [Example 45]	0.006 to 0.05 µM
CN1C(=O)c2ccccc2C(CCNCC(=O)N2CCC[C@H]2C#N)(c2nn[nH]n2)c2ccccc21 (stereo partly drawn) [Example 46]	0.5 to 30 µM
N#C[C@@H]1C[C@@H]2C[C@@H]2N1C(=O)CNCCC1(c2nn[nH]n2)c2ccc(C(N)=O)cc2CCc2cc(C(N)=O)ccc21 [Example 47]	< 0.006 µM
N#C[C@@H]1CCCN1C(=O)[C@@H](N)CN1C[C@@H]2C[C@H]1C(=O)N2Cc1cccc(F)c1 [Example 48]	< 0.006 µM

Structure (SMILES)	Ki
N#C[C@@H]1CCCN1C(=O)[C@@H](N)CN1C[C@@H]2C[C@H]1C(=O)N2Cc1c(Cl)cccc1Cl [Example 49]	< 0.006 µM
C[C@@H](c1ccc(F)cc1)N1C(=O)[C@@H]2CC1CN2C[C@H](N)C(=O)N1CCSC1 [Example 50]	0.006 to 0.05 µM
N#C[C@@H]1CCCN1C(=O)[C@@H](N)CN1CC2C[C@H]1C(=O)N2Cc1cc(F)cc(F)c1 [Example 51]	< 0.006 µM
N#C[C@@H]1C[C@@H]2C[C@@H]2N1C(=O)[C@@H](N)CN1CC2C[C@H]1C(=O)N2Cc1cc(F)cc(F)c1 [Example 52]	< 0.006 µM
N#Cc1cccc(CN2C(=O)[C@@H]3CC2CN3C[C@H](N)C(=O)N2CCC[C@H]2C#N)c1 [Example 53]	< 0.006 µM
N#Cc1cccc(CN2C(=O)[C@@H]3CC2CN3C[C@H](N)C(=O)N2[C@H](C#N)C[C@@H]3C[C@@H]32)c1 [Example 54]	< 0.006 µM
N#Cc1ccc(CN2C(=O)[C@@H]3CC2CN3C[C@H](N)C(=O)N2CCC[C@H]2C#N)cc1 [Example 55]	< 0.006 µM
C[C@H](c1ccc(F)cc1)N1C(=O)[C@@H]2CC1CN2C[C@H](N)C(=O)N1CCC[C@H]1C#N [Example 56]	< 0.006 µM
C[C@@H](c1ccc(F)cc1)N1C(=O)[C@@H]2CC1CN2C[C@H](N)C(=O)N1CCC[C@H]1C#N [Example 57]	< 0.006 µM
C[C@@H](c1ccc(F)cc1)N1C(=O)[C@@H]2CC1CN2C[C@H](N)C(=O)N1[C@H](C#N)C[C@@H]2C[C@@H]21 [Example 58]	< 0.006 µM
CC(C)(c1ccc(F)cc1)N1C(=O)[C@@H]2CC1CN2C[C@H](N)C(=O)N1CCC[C@H]1C#N [Example 59]	< 0.006 µM
N#C[C@@H]1CCCN1C(=O)[C@@H](N)CN1CC2C[C@H]1C(=O)N2Cc1cccc(C(N)=O)c1 [Example 60]	< 0.006 µM
N#C[C@@H]1CCCN1C(=O)[C@@H](N)CN1CC2C[C@H]1C(=O)N2Cc1ccc(C(N)=O)cc1 [Example 61]	< 0.006 µM
CC(C)(c1ccc(F)cc1)N1C(=O)[C@@H]2CC1CN2C[C@H](N)C(=O)N1[C@H](C#N)C[C@@H]2C[C@@H]21 [Example 62]	< 0.006 µM
N#C[C@@H]1CCCN1C(=O)[C@@H]1C[C@H](N2C[C@@H]3C[C@H]2C(=O)N3Cc2cccc(F)c2)CN1 [Example 63]	< 0.006 µM
N#C[C@@H]1C[C@@H]2C[C@@H]2N1C(=O)[C@@H](N)CN1C[C@@H]2C[C@H]1C(=O)N2Cc1cccc(F)c1 [Example 64]	< 0.006 µM
N#C[C@@H]1CCCN1C(=O)[C@@H](N)CN1C(=O)[C@@H]2C[C@H]1CN2S(=O)(=O)c1cccc(F)c1 [Example 65]	0.006 to 0.05 µM
N#C[C@@H]1CCCN1C(=O)[C@@H](N)CN1C(=O)[C@@H]2C[C@H]1CN2S(=O)(=O)c1cccs1 [Example 66]	0.006 to 0.05 µM
N#C[C@@H]1CCCN1C(=O)[C@@H](N)CN1C(=O)[C@@H]2C[C@H]1CN2S(=O)(=O)c1ccsc1 [Example 67]	< 0.006 µM
COC(=O)c1sccc1S(=O)(=O)N1C[C@@H]2C[C@H]1C(=O)N2C[C@H](N)C(=O)N1CCC[C@H]1C#N [Example 68]	0.006 to 0.05 µM
N#C[C@@H]1CCCN1C(=O)[C@@H](N)CN1C(=O)[C@@H]2C[C@H]1CN2C(=O)c1cccs1 [Example 69]	0.006 to 0.05 µM
